Assay results as given in patent publication US20260285716A1, “METHODS TO REDUCE CONTAMINATION, BIOFILM, AND FOULING FROM WATER SYSTEMS AND SURFACES” (Aequor Inc., priority 2022, published 2026).

Tested on: Pseudomonas aeruginosa
Type: cell-based

In the case of butyl acid phosphate [BAP], the “MBEC (removal of 48-hr biofilm)” value is reported as at most 47 ppm.
